In PubChem BioAssay (NCI):
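Cells were grown in 96-well plates and exposed to each compound for 48 hours at five concentrations; endpoints were interpolated linearly between bracketing concentrations, or set to the highest concentration if not reached. Definition used: TGI = concentration required for complete inhibition of growth.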

Columns and labels:
Test in all cases: inhibition of tumour cell growth, NCI panel, 48 h
786-0 renal = test system: 786-0 renal
A498 renal = test system: A498 renal
A549 NSCLC = test system: A549 NSCLC
ACHN renal = test system: ACHN renal
BT-549 breast = test system: BT-549 breast
CAKI-1 renal = test system: CAKI-1 renal
COLO 205 colon = test system: COLO 205 colon
DU-145 prostate = test system: DU-145 prostate
EKVX NSCLC = test system: EKVX NSCLC
HCC-2998 colon = test system: HCC-2998 colon
HCT-116 colon = test system: HCT-116 colon
HCT-15 colon = test system: HCT-15 colon
HL-60(TB) leukemia = test system: HL-60(TB) leukemia
HOP-62 NSCLC = test system: HOP-62 NSCLC
HOP-92 NSCLC = test system: HOP-92 NSCLC
HS 578T breast = test system: HS 578T breast
HT29 colon = test system: HT29 colon
IGROV1 ovarian = test system: IGROV1 ovarian
K-562 leukemia = test system: K-562 leukemia
KM12 colon = test system: KM12 colon
LOX IMVI melanoma = test system: LOX IMVI melanoma
M14 melanoma = test system: M14 melanoma
MCF7 breast = test system: MCF7 breast
MDA-MB-231 breast = test system: MDA-MB-231 breast
MDA-MB-435 = test system: MDA-MB-435
MDA-N = test system: MDA-N
MOLT-4 leukemia = test system: MOLT-4 leukemia
NCI-H226 lung = test system: NCI-H226 lung
NCI-H460 lung = test system: NCI-H460 lung
NCI-H522 lung = test system: NCI-H522 lung
NCI/ADR-RES ovarian = test system: NCI/ADR-RES ovarian
OVCAR-3 ovarian = test system: OVCAR-3 ovarian
OVCAR-4 ovarian = test system: OVCAR-4 ovarian
OVCAR-5 ovarian = test system: OVCAR-5 ovarian
OVCAR-8 ovarian = test system: OVCAR-8 ovarian
PC-3 prostate = test system: PC-3 prostate
RPMI-8226 leukemia = test system: RPMI-8226 leukemia
SF-268 CNS = test system: SF-268 CNS
SF-295 CNS = test system: SF-295 CNS
SF-539 CNS = test system: SF-539 CNS
SK-MEL-2 melanoma = test system: SK-MEL-2 melanoma
SK-MEL-28 melanoma = test system: SK-MEL-28 melanoma
SK-MEL-5 melanoma = test system: SK-MEL-5 melanoma
SK-OV-3 ovarian = test system: SK-OV-3 ovarian
SN12C renal = test system: SN12C renal
SNB-19 CNS = test system: SNB-19 CNS
SNB-75 CNS = test system: SNB-75 CNS
SR leukemia = test system: SR leukemia
SW-620 colon = test system: SW-620 colon
T-47D breast = test system: T-47D breast
TK-10 renal = test system: TK-10 renal
U251 CNS = test system: U251 CNS
UACC-257 melanoma = test system: UACC-257 melanoma
UACC-62 melanoma = test system: UACC-62 melanoma
UO-31 renal = test system: UO-31 renal

Measured: TGI

COC(=O)CN(CC1O[C@@H]2OC(C)(C)O[C@@H]2C1NC(C)=O)C(=O)OCc1ccccc1 (stereo not given in full)
> 100 µM: all assays above
